The text below walks through data of PubChem BioAssay AID504598 (NMMLSC, 2011).

Assay [1] has as its target Bcl-2-like protein 10 (Homo sapiens) (UniProt Q9HD36). As to the kind of experiment: Bcl-2 family partner binding disruption – biochemical, powder compounds, wildtype and mutant Bfl1, panel, dose response (AID 504598). Particulars: Bfl1/BclB peptide binding displacement assay, BclB wildtype; for percent span: stronger effect = higher value.
The target of assay [2] is Bcl-2-related protein A1 (Homo sapiens) (UniProt Q16548). Described as above. Conditions: Bfl1/BclB peptide binding displacement assay; for percent span: stronger effect = higher value.
Sequence of Bcl-2-related protein A1 (Homo sapiens) (Q16548 whole entry, looked up): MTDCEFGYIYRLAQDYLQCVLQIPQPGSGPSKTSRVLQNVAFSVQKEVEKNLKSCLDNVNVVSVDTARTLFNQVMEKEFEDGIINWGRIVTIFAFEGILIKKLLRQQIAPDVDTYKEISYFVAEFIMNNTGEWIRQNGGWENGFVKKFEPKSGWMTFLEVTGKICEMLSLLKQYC
The mark [3] stands for this setting: Bfl1 wildtype, deteriorated Bfl1 protein.

Calls of active or inactive are those of the source. No rule for the calls is given here.

Sequence of Bcl-2-like protein 10 (Homo sapiens) (Q9HD36 whole entry, looked up): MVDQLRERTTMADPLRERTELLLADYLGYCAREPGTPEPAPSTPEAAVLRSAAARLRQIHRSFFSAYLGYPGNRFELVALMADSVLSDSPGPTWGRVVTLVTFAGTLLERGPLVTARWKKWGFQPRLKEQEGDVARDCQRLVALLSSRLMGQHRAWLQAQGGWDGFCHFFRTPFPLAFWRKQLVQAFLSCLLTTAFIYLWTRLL

Regarding `Cc1ccc(-c2cc(-c3ccc(C)o3)nc(N)c2C#N)cc1`, the percent span result in assay [1], in assay [2] (Bfl1 mutant) and in assay [2] (Bfl1 wildtype) was “inactive” throughout. In assay [2] (setting [3]), the EC50 (in general, the midpoint of the concentration-response curve) came out at 1260 nM.

On to `Oc1ccc(NCc2ccccc2OCc2ccccc2)cc1`, for which the percent span entry in assay [1], in assay [2] (Bfl1 mutant) and in assay [2] (Bfl1 wildtype) was “inactive” in each case. The molecule also displayed a half-maximal effective concentration (EC50) in assay [2] (setting [3]) of 619 nM.

`CNC1CCC(Br)CC(C(=O)/C=C/c2cccc(OC)c2OC)C1=O` (stereo unspecified): the percent span entry in assay [1] was “inactive”. Further, the EC50 result in assay [2] (Bfl1 mutant) was “inactive”. Besides, the EC50 is 9210 nM in assay [2] (Bfl1 wildtype) and 18400 nM in assay [2] (setting [3]).

Consider `Cc1cc(N)ccc1N1CCCC1`, for which the EC50 in assay [1] is > 141000 nM (inactive); in assay [2] (setting [3]), 1860 nM. The percent span entry in assay [2] (Bfl1 mutant) and in assay [2] (Bfl1 wildtype) was “inactive” in each case.

Turning to `O=C1NC(=O)C2(Cc3c(nc4ccccn4c3=O)N3CCCCCC32)C(=O)N1Cc1ccccc1` (stereo unspecified), the percent span result in assay [1], in assay [2] (Bfl1 mutant) and in assay [2] (Bfl1 wildtype) was “inactive” throughout.

As for `COc1cccc(-c2cc(C(F)(F)F)nc(S(C)(=O)=O)n2)c1`, the percent span result in assay [1], in assay [2] (Bfl1 mutant) and in assay [2] (Bfl1 wildtype) was “inactive” in each case. In addition, the EC50 in assay [2] (setting [3]) was determined as 259 nM.

On to `Cc1ccc(C=NNC(=O)CSc2nnc(-c3ccc(Cl)cc3)n2-c2ccccc2)o1`, for which, in assay [1], the EC50 is 2300 nM. For the same molecule, the percent span entry in assay [2] (Bfl1 mutant) and in assay [2] (Bfl1 wildtype) was “inactive” throughout.

For the molecule `CN1CCN(C2=C(Cl)C(=O)N(c3ccc(Cl)c(Cl)c3)C2=O)CC1`, the percent span entry in assay [1], in assay [2] (Bfl1 mutant) and in assay [2] (Bfl1 wildtype) was “inactive” throughout.

Regarding `O=C1C(Cl)=C(N2CCN(c3ccccc3[N+](=O)[O-])CC2)C(=O)c2ccccc21`, the percent span result in assay [1], in assay [2] (Bfl1 mutant) and in assay [2] (Bfl1 wildtype) was “inactive” in each case. The EC50 in assay [2] (setting [3]) is 420 nM.

On to `CCN1C(=O)/C(=C\C=C2/C=CC=CN2CC)SC1=S`, for which the percent span result in assay [1], in assay [2] (Bfl1 mutant) and in assay [2] (Bfl1 wildtype) was “inactive” in each case. The molecule further gave an EC50 in assay [2] (setting [3]) of 483 nM.

Take `CNC(CC(=O)c1ccc([N+](=O)[O-])cc1)C(Cl)(Cl)Cl` (stereo unspecified): the percent span result in assay [1], in assay [2] (Bfl1 mutant) and in assay [2] (Bfl1 wildtype) was “inactive” each time. Also, in assay [2] (setting [3]), the EC50 turned out to be 31.4 nM.

For `CC(C)c1nnc(NC(=O)CCS(=O)(=O)c2nc(-c3cccs3)cc(C(F)(F)F)n2)s1`, the percent span entry in assay [1], in assay [2] (Bfl1 mutant) and in assay [2] (Bfl1 wildtype) was “inactive” in each case.

For the molecule `Cc1ccc(C)n1-c1ccc(Br)cc1C(=O)O`, the percent span entry in assay [1], in assay [2] (Bfl1 mutant) and in assay [2] (Bfl1 wildtype) was “inactive” throughout.

Turning to `CC(=O)c1ccc(NC(=O)c2ccc3nc(-c4ccco4)c(-c4ccco4)nc3c2)cc1`, the EC50 result in assay [1] was “inactive”. The percent span result in assay [2] (Bfl1 mutant) and in assay [2] (Bfl1 wildtype) was “inactive” each time. Moreover, the EC50 in assay [2] (setting [3]) is 2120 nM.

Take `Cc1cc(C)nc(/N=C(/N)Nc2cccc(N)c2)n1`: the percent span result in assay [1], in assay [2] (Bfl1 mutant) and in assay [2] (Bfl1 wildtype) was “inactive” each time.

As to `Cc1ccc(-c2cc(-c3ccc(F)cc3)c(C#N)c(N)n2)o1`, the percent span result in assay [1], in assay [2] (Bfl1 mutant) and in assay [2] (Bfl1 wildtype) was “inactive” throughout. In addition, the EC50 in assay [2] (setting [3]) worked out at 1530 nM.

For `CN1CCN(C2=C(Cl)C(=O)N(c3cccc(Cl)c3)C2=O)CC1`, the percent span result in assay [1], in assay [2] (Bfl1 mutant) and in assay [2] (Bfl1 wildtype) was “inactive” throughout.

Regarding `CCOC(=O)CCS(=O)(=O)c1nc(-c2ccccc2)cc(C(F)(F)F)n1`, the percent span entry in assay [1], in assay [2] (Bfl1 mutant) and in assay [2] (Bfl1 wildtype) was “inactive” in each case.

Consider `Cc1cc(-c2cc(-c3ccc(Cl)cc3)nc(N)c2C#N)co1`, for which the percent span result in assay [1] and in assay [2] (Bfl1 mutant) was “inactive” throughout. The EC50 in assay [2] (Bfl1 wildtype) is > 104000 nM (inactive); in assay [2] (setting [3]) it was 1060 nM.

Consider `CCOC(=O)CS(=O)(=O)c1nc(-c2ccccc2)cc(C(F)(F)F)n1`, for which the percent span result in assay [1], in assay [2] (Bfl1 mutant) and in assay [2] (Bfl1 wildtype) was “inactive” in each case. This molecule also had an EC50 in assay [2] (setting [3]) of 365 nM.

As to `O=C(Nc1ccc2nc(-c3ccco3)c(-c3ccco3)nc2c1)N1CCCCCC1`, the EC50 is 13600 nM in assay [1] and 344 nM in assay [2] (setting [3]). The percent span entry in assay [2] (Bfl1 mutant) and in assay [2] (Bfl1 wildtype) was “inactive” in each case.
